Measured values from publication PMC6308032 (Molecular Metabolism, 2018).

Columns and labels:
[1] = Clinical pharmacokinetics, SAD part; type: in vivo; details: human; for AUC(0-inf) / CL/F / Cmax / Tmax / Vd/F / half-life: plasma, sc
[2] = Clinical pharmacokinetics, MAD part; type: in vivo; details: human, SC once weekly
[3] = tested on: patients with T2DM; assay: Adverse events, Phase 1b POC part; type: in vivo, human; details: for Any TEAE: T2DM patients
[4] = tested on: healthy subjects and patients with T2DM; assay: Other safety laboratory parameters; type: in vivo, human
[5] = Immunogenicity, anti-drug antibody; type: in vivo, human; details: whole study
[6] = tested on: healthy subjects and patients with T2DM; assay: ECG analysis; type: in vivo, human
[7] = tested on: healthy subjects; assay: Pharmacodynamics; type: in vivo, human; details: MAD, dulaglutide 1.5 mg/wk, LSM

For `CC[C@H](C)[C@H](NC(=O)[C@H](CC(C)C)NC(=O)[C@H](Cc1c[nH]c2ccccc12)NC(=O)[C@H](CCC(N)=O)NC(=O)[C@@H](NC(=O)[C@H](Cc1ccccc1)NC(=O)[C@H](C)NC(=O)[C@H](CCCCNC(=O)COCCOCCNC(=O)COCCOCCNC(=O)CC[C@H](NC(=O)CCCCCCCCCCCCCCCCCCC(=O)O)C(=O)O)NC(=O)[C@H](CCC(N)=O)NC(=O)[C@H](C)NC(=O)[C@@H](NC(=O)[C@H](CCCCN)NC(=O)[C@H](CC(=O)O)NC(=O)[C@H](CC(C)C)NC(=O)C(C)(C)NC(=O)[C@@H](NC(=O)[C@H](CO)NC(=O)[C@H](Cc1ccc(O)cc1)NC(=O)[C@H](CC(=O)O)NC(=O)[C@H](CO)NC(=O)[C@@H](NC(=O)[C@H](Cc1ccccc1)NC(=O)[C@@H](NC(=O)CNC(=O)[C@H](CCC(=O)O)NC(=O)C(C)(C)NC(=O)[C@@H](N)Cc1ccc(O)cc1)[C@@H](C)O)[C@@H](C)O)[C@@H](C)CC)[C@@H](C)CC)C(C)C)C(=O)N[C@@H](C)C(=O)NCC(=O)NCC(=O)N1CCC[C@H]1C(=O)N[C@@H](CO)C(=O)N[C@@H](CO)C(=O)NCC(=O)N[C@@H](C)C(=O)N1CCC[C@H]1C(=O)N1CCC[C@H]1C(=O)N1CCC[C@H]1C(=O)N[C@@H](CO)C(N)=O` [LY3298176], the “time of maximum concentration after dosing” value ([1]; SC, over the doses studied) was 24 to 48 h, the AUC(0-inf) ([1]; 0.25 mg) was 5760 ng·h/mL and the CL/F ([1]; 0.25 mg) was 0.723 mL/min. It also gave a Cmax ([1]; 0.25 mg) of 26 ng/mL, a Tmax ([1]; 0.25 mg) of 48 h and a Vd/F ([1]; 0.25 mg) of 7.26 L. It also gave a half-life ([1]; 0.25 mg) of 116 h, an AUC(0-inf) ([1]; 0.5 mg) of 12000 ng·h/mL and a CL/F ([1]; 0.5 mg) of 0.693 mL/min. The Cmax ([1]; 0.5 mg) was 57.7 ng/mL, the Tmax ([1]; 0.5 mg) was 48 h and the Vd/F ([1]; 0.5 mg) was 7.46 L. The half-life ([1]; 0.5 mg) was 124 h, the AUC(0-inf) ([1]; 1 mg) was 22600 ng·h/mL and the CL/F ([1]; 1 mg) was 0.738 mL/min. It also gave a Cmax ([1]; 1 mg) of 108 ng/mL, a Tmax ([1]; 1 mg) of 24 h and a Vd/F ([1]; 1 mg) of 6.76 L. It also gave an AUC(0-inf) ([1]; 2.5 mg) of 53200 ng·h/mL, a CL/F ([1]; 2.5 mg) of 0.783 mL/min and a Cmax ([1]; 2.5 mg) of 231 ng/mL. For the same compound, the Tmax ([1]; 2.5 mg) was 24 h, the Vd/F ([1]; 2.5 mg) was 8.15 L and the AUC(0-inf) ([1]; 5 mg) was 90500 ng·h/mL. For the same compound, the CL/F ([1]; 5 mg) was 0.922 mL/min, the Cmax ([1]; 5 mg) was 397 ng/mL and the Tmax ([1]; 5 mg) was 24 h. It also gave a Vd/F ([1]; 5 mg) of 9.8 L, an AUC(0-inf) ([1]; 8 mg) of 169000 ng·h/mL and a CL/F ([1]; 8 mg) of 0.787 mL/min. It also gave a Cmax ([1]; 8 mg) of 874 ng/mL, a Tmax ([1]; 8 mg) of 48 h and a Vd/F ([1]; 8 mg) of 7.55 L. The half-life ([1]; mean half-life) was ~120 h, the “average accumulation following four weekly doses” value [2] was 1.58 and the “mean steady-state volume of distribution” value [2] was 9.5 L. For the same compound, the Abdominal distension ([3]; 0.5 mg, N=9) was 0 (0.0) n (%), the Abdominal pain ([3]; 0.5 mg, N=9) was 0 (0.0) n (%) and the Acute pancreatitis ([3]; 0.5 mg, N=9) was 0 (0.0) n (%). For the same compound, the Decreased appetite ([3]; 0.5 mg, N=9) was 2 (22.2) n (%), the Dermatitis allergic ([3]; 0.5 mg, N=9) was 0 (0.0) n (%) and the Diarrhoea ([3]; 0.5 mg, N=9) was 1 (11.1) n (%). For the same compound, the Dyspepsia ([3]; 0.5 mg, N=9) was 0 (0.0) n (%), the Eructation ([3]; 0.5 mg, N=9) was 0 (0.0) n (%) and the Gastrooesophageal reflux disease ([3]; 0.5 mg, N=9) was 0 (0.0) n (%). For the same compound, the Headache ([3]; 0.5 mg, N=9) was 1 (11.1) n (%), the Hepatic enzyme increased ([3]; 0.5 mg, N=9) was 0 (0.0) n (%) and the Injection site reaction ([3]; 0.5 mg, N=9) was 0 (0.0) n (%). For the same compound, the Nausea ([3]; 0.5 mg, N=9) was 1 (11.1) n (%), the Pancreatic enzyme increased ([3]; 0.5 mg, N=9) was 0 (0.0) n (%) and the Serious adverse events ([3]; 0.5 mg, N=9) was 0 (0.0) n (%). For the same compound, the Severe hypoglycaemia ([3]; 0.5 mg, N=9) was 0 (0.0) n (%), the “Study discontinuation due to adverse events” value (shortened to “Study discontinuation due”) ([3]; 0.5 mg, N=9) was 0 (0.0) n (%) and the “TEAE Mild, events” value ([3]; 0.5 mg, N=9) was 15 events. The “TEAE Moderate, events” value ([3]; 0.5 mg, N=9) was 0 events, the “TEAE Severe, events” value ([3]; 0.5 mg, N=9) was 0 events and the “Total hypoglycaemia (≤70 mg/dL)” value ([3]; 0.5 mg, N=9) was 0 (0.0) n (%). For the same compound, the Vomiting ([3]; 0.5 mg, N=9) was 1 (11.1) n (%), the “Weight decrease (TEAE)” value ([3]; 0.5 mg, N=9) was 0 (0.0) n (%) and the Abdominal distension ([3]; 5 mg, N=9) was 1 (11.1) n (%). For the same compound, the Abdominal pain ([3]; 5 mg, N=9) was 0 (0.0) n (%), the Acute pancreatitis ([3]; 5 mg, N=9) was 0 (0.0) n (%) and the Decreased appetite ([3]; 5 mg, N=9) was 6 (66.7) n (%). The Dermatitis allergic ([3]; 5 mg, N=9) was 0 (0.0) n (%), the Diarrhoea ([3]; 5 mg, N=9) was 1 (11.1) n (%) and the Dyspepsia ([3]; 5 mg, N=9) was 0 (0.0) n (%). The Eructation ([3]; 5 mg, N=9) was 0 (0.0) n (%), the Gastrooesophageal reflux disease ([3]; 5 mg, N=9) was 1 (11.1) n (%) and the Headache ([3]; 5 mg, N=9) was 0 (0.0) n (%). For the same compound, the Hepatic enzyme increased ([3]; 5 mg, N=9) was 0 (0.0) n (%), the Injection site reaction ([3]; 5 mg, N=9) was 0 (0.0) n (%) and the Nausea ([3]; 5 mg, N=9) was 1 (11.1) n (%). For the same compound, the Pancreatic enzyme increased ([3]; 5 mg, N=9) was 0 (0.0) n (%), the Serious adverse events ([3]; 5 mg, N=9) was 0 (0.0) n (%) and the Severe hypoglycaemia ([3]; 5 mg, N=9) was 0 (0.0) n (%). The “Study discontinuation due” value ([3]; 5 mg, N=9) was 3 (33.3) n (%), the “TEAE Mild, events” value ([3]; 5 mg, N=9) was 17 events and the “TEAE Moderate, events” value ([3]; 5 mg, N=9) was 0 events. For the same compound, the “TEAE Severe, events” value ([3]; 5 mg, N=9) was 0 events, the “Total hypoglycaemia (≤70 mg/dL)” value ([3]; 5 mg, N=9) was 0 (0.0) n (%) and the Vomiting ([3]; 5 mg, N=9) was 0 (0.0) n (%). The “Weight decrease (TEAE)” value ([3]; 5 mg, N=9) was 0 (0.0) n (%), the Abdominal distension ([3]; 5/5/10/10 mg, N=12) was 2 (16.7) n (%) and the Abdominal pain ([3]; 5/5/10/10 mg, N=12) was 0 (0.0) n (%). The Acute pancreatitis ([3]; 5/5/10/10 mg, N=12) was 0 (0.0) n (%), the Decreased appetite ([3]; 5/5/10/10 mg, N=12) was 5 (41.7) n (%) and the Dermatitis allergic ([3]; 5/5/10/10 mg, N=12) was 0 (0.0) n (%). For the same compound, the Diarrhoea ([3]; 5/5/10/10 mg, N=12) was 3 (25.0) n (%), the Dyspepsia ([3]; 5/5/10/10 mg, N=12) was 3 (25.0) n (%) and the Eructation ([3]; 5/5/10/10 mg, N=12) was 1 (8.3) n (%). The Gastrooesophageal reflux disease ([3]; 5/5/10/10 mg, N=12) was 1 (8.3) n (%), the Headache ([3]; 5/5/10/10 mg, N=12) was 0 (0.0) n (%) and the Hepatic enzyme increased ([3]; 5/5/10/10 mg, N=12) was 1 (8.3) n (%). The Injection site reaction ([3]; 5/5/10/10 mg, N=12) was 0 (0.0) n (%), the Nausea ([3]; 5/5/10/10 mg, N=12) was 1 (8.3) n (%) and the Pancreatic enzyme increased ([3]; 5/5/10/10 mg, N=12) was 0 (0.0) n (%). The Serious adverse events ([3]; 5/5/10/10 mg, N=12) was 0 (0.0) n (%), the Severe hypoglycaemia ([3]; 5/5/10/10 mg, N=12) was 0 (0.0) n (%) and the “Study discontinuation due” value ([3]; 5/5/10/10 mg, N=12) was 0 (0.0) n (%). The “TEAE Mild, events” value ([3]; 5/5/10/10 mg, N=12) was 54 events, the “TEAE Moderate, events” value ([3]; 5/5/10/10 mg, N=12) was 1 events and the “TEAE Severe, events” value ([3]; 5/5/10/10 mg, N=12) was 0 events. For the same compound, the “Total hypoglycaemia (≤70 mg/dL)” value ([3]; 5/5/10/10 mg, N=12) was 2 (16.7) n (%), the Vomiting ([3]; 5/5/10/10 mg, N=12) was 1 (8.3) n (%) and the “Weight decrease (TEAE)” value ([3]; 5/5/10/10 mg, N=12) was 2 (16.7) n (%). For the same compound, the Abdominal distension ([3]; 5/5/10/15 mg, N=12) was 7 (58.3) n (%), the Abdominal pain ([3]; 5/5/10/15 mg, N=12) was 2 (16.7) n (%) and the Acute pancreatitis ([3]; 5/5/10/15 mg, N=12) was 0 (0.0) n (%). The Decreased appetite ([3]; 5/5/10/15 mg, N=12) was 11 (91.7) n (%), the Dermatitis allergic ([3]; 5/5/10/15 mg, N=12) was 2 (16.7) n (%) and the Diarrhoea ([3]; 5/5/10/15 mg, N=12) was 5 (41.7) n (%). For the same compound, the Dyspepsia ([3]; 5/5/10/15 mg, N=12) was 0 (0.0) n (%), the Eructation ([3]; 5/5/10/15 mg, N=12) was 4 (33.3) n (%) and the Gastrooesophageal reflux disease ([3]; 5/5/10/15 mg, N=12) was 5 (41.7) n (%). The Headache ([3]; 5/5/10/15 mg, N=12) was 2 (16.7) n (%), the Hepatic enzyme increased ([3]; 5/5/10/15 mg, N=12) was 1 (8.3) n (%) and the Injection site reaction ([3]; 5/5/10/15 mg, N=12) was 0 (0.0) n (%). For the same compound, the Nausea ([3]; 5/5/10/15 mg, N=12) was 6 (50.0) n (%), the Pancreatic enzyme increased ([3]; 5/5/10/15 mg, N=12) was 1 (8.3) n (%) and the Serious adverse events ([3]; 5/5/10/15 mg, N=12) was 0 (0.0) n (%). For the same compound, the Severe hypoglycaemia ([3]; 5/5/10/15 mg, N=12) was 0 (0.0) n (%), the “Study discontinuation due” value ([3]; 5/5/10/15 mg, N=12) was 0 (0.0) n (%) and the “TEAE Mild, events” value ([3]; 5/5/10/15 mg, N=12) was 87 events. The “TEAE Moderate, events” value ([3]; 5/5/10/15 mg, N=12) was 9 events, the “TEAE Severe, events” value ([3]; 5/5/10/15 mg, N=12) was 0 events and the “Total hypoglycaemia (≤70 mg/dL)” value ([3]; 5/5/10/15 mg, N=12) was 1 (8.3) n (%). The Vomiting ([3]; 5/5/10/15 mg, N=12) was 9 (75.0) n (%), the “Weight decrease (TEAE)” value ([3]; 5/5/10/15 mg, N=12) was 2 (16.7) n (%) and the “Any TEAE” value ([3]; 0.5 mg QW x4 SC, N=9) was 5 (55.6) n (%). For the same compound, the “Any TEAE” value ([3]; 5 mg QW x4 SC, N=9) was 7 (77.8) n (%), the “Any TEAE” value ([3]; 5/5/10/10 mg QW SC, N=12) was 10 (83.3) n (%) and the “Any TEAE” value ([3]; 5/5/10/15 mg QW SC, N=12) was 11 (91.7) n (%). For the same compound, the “lipase and amylase, mean values compared to baseline” value [4] was “Increases from baseline in mean values of lipase and amylase within the normal range”, the “subjects who developed treatment-emergent or treatment-boosted ADAs” value [5] was “Four” and the “drug-related QT prolongation” value [6] was “no signal of drug-related QT prolongation”.

For “Dulaglutide: selective GLP-1 receptor agonist, positive control, 1.5 mg/0.5 mL single-use pen”, the “Body Weight Change from Baseline, Day 29” value [7] was -1.3 kg.
